Laboratory results from article PMC9676260, “Enzymatic properties of CARF-domain proteins in Synechocystis sp. PCC 6803” (Frontiers in Microbiology, 2022).

Assays:
SyCsm6 [1] = biological target: T1, SyCsm6 (Synechocystis sp. PCC 6803, UniProt Q6ZED6); experiment: LC-MS of cOA degradation products; coupled SyCsx1 activation assay; format: biochemical; details: ring nuclease; 667 nM cA4, 2 µM SyCsm6, 30 °C, 2 h
T1 construct: gene sll7062; full-length, His-tagged (pQE-80), E. coli BL21(DE3); encoded on plasmid pSYSA, CRISPR2 (III-D) locus
T1 sequence (Q6ZED6 1-371): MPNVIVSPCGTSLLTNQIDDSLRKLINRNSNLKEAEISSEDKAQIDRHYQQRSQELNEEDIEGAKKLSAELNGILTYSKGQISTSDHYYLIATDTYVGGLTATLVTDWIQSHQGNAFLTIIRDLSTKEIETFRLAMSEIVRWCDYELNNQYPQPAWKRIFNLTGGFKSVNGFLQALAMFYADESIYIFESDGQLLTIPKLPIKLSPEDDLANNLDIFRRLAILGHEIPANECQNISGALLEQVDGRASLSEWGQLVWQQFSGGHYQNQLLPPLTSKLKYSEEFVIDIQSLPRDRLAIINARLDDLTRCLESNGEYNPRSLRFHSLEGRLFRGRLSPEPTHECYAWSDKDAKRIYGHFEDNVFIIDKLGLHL

SyCsx1 [2] = biological target: T2, SyCsx1 (Synechocystis sp. PCC 6803, UniProt Q6ZED7); experiment: fluorogenic RNaseAlert cleavage; gel-based RNA cleavage; format: biochemical; details: allosteric activator binding the CARF domain; 300 nM cA4, 300 nM SyCsx1, 40 nM RNaseAlert substrate, 50 mM HEPES pH 7.5, 50 mM KCl, 1 mM DTT, 30 °C
T2 construct: gene slr7061; full-length, His-tagged (pQE-80), E. coli BL21(DE3); about 89 kDa by SEC, dimer; encoded on plasmid pSYSA, CRISPR2 (III-D) locus
T2 sequence (Q6ZED7 1-422): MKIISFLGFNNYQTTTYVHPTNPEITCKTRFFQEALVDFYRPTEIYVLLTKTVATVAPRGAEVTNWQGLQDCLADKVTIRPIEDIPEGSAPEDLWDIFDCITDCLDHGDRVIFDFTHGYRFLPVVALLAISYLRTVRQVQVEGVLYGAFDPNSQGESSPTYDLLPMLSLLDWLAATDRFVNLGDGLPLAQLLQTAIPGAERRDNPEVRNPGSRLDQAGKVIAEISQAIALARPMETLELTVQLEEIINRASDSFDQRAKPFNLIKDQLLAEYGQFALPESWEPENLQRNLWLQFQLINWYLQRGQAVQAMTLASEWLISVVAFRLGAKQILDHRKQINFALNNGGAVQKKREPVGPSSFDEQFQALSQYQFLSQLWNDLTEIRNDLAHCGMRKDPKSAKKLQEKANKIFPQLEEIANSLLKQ

SyCsm6 [3] = biological target: T1, SyCsm6; experiment: LC-MS of cOA degradation products; format: biochemical; details: ring nuclease; 667 nM cA6, 2 µM SyCsm6, 30 °C, 2 h
SyCsx1 [4] = biological target: T2, SyCsx1; experiment: fluorogenic RNaseAlert cleavage; format: biochemical; details: activator; cFA4 preincubated at 20 nM (mock or with SyCsm6), then 300 nM SyCsx1, 20 nM RNaseAlert substrate, 30 °C
[5] = biological target: SyCsm6 (Csm6 homolog of the Synechocystis sp. PCC 6803 CRISPR2 type III-D system) (Synechocystis sp. PCC 6803); experiment: SEC; Superdex 200 10/300 column in 50 mM Tris pH 8.0, 150 mM NaCl, 5% glycerol; elution volume compared with the monomer's mass; monomer to dimer
[6] = biological target: SyCsx1 (Csx1 homolog of the Synechocystis sp. PCC 6803 CRISPR2 type III-D system) (Synechocystis sp. PCC 6803); experiment: as above

Nc1ncnc2c1ncn2[C@@H]1O[C@@H]2COP(=O)(O)O[C@H]3[C@@H](O)[C@H](n4cnc5c(N)ncnc54)O[C@@H]3COP(=O)(O)O[C@H]3[C@@H](O)[C@H](n4cnc5c(N)ncnc54)O[C@@H]3COP(=O)(O)O[C@H]3[C@@H](O)[C@H](n4cnc5c(N)ncnc54)O[C@@H]3COP(=O)(O)O[C@H]2[C@H]1O [cA4]
LC-MS of cOA degradation products; coupled SyCsx1 activation assay (SyCsm6 [1]): the substrate peak was gone and cA4 was converted to a product | fluorogenic RNaseAlert cleavage; gel-based RNA cleavage (SyCsx1 [2]): the addition of cA4 leads to a significant increase of the fluorescence signal

Nc1ncnc2c1ncn2[C@@H]1O[C@@H]2COP(=O)(O)O[C@H]3[C@@H](O)[C@H](n4cnc5c(N)ncnc54)O[C@@H]3COP(=O)(O)O[C@H]3[C@@H](O)[C@H](n4cnc5c(N)ncnc54)O[C@@H]3COP(=O)(O)O[C@H]3[C@@H](O)[C@H](n4cnc5c(N)ncnc54)O[C@@H]3COP(=O)(O)O[C@H]3[C@@H](O)[C@H](n4cnc5c(N)ncnc54)O[C@@H]3COP(=O)(O)O[C@H]3[C@@H](O)[C@H](n4cnc5c(N)ncnc54)O[C@@H]3COP(=O)(O)O[C@H]2[C@H]1O [cA6]
LC-MS of cOA degradation products (SyCsm6 [3]): cA6 was cleaved to A2 > P and an additional product

Nc1ncnc2c1ncn2[C@@H]1O[C@@H]2COP(=O)(O)O[C@H]3[C@@H](F)[C@H](n4cnc5c(N)ncnc54)O[C@@H]3COP(=O)(O)O[C@H]3[C@@H](F)[C@H](n4cnc5c(N)ncnc54)O[C@@H]3COP(=O)(O)O[C@H]3[C@@H](F)[C@H](n4cnc5c(N)ncnc54)O[C@@H]3COP(=O)(O)O[C@H]2[C@H]1F [cFA4]
fluorogenic RNaseAlert cleavage (SyCsx1 [4]): cFA4 is a less potent activator of SyCsx1 as seen by the slower substrate turnover

SyCsm6 (Csm6 homolog of the Synechocystis sp. PCC 6803 CRISPR2 type III-D system) (enzyme)
stoichiometry N [5]: 2

SyCsx1 (Csx1 homolog of the Synechocystis sp. PCC 6803 CRISPR2 type III-D system) (enzyme)
stoichiometry N [6]: 2
